What follows are compounds tested against T1, partially purified telomerase from a nuclear extract of HEK293 cells (Homo sapiens, UniProt O14746) (assay: In vitro telomerase inhibition, membrane hybridization method (U.S. Pat. No. 5,760,062)). Settings: in the presence of the compound at a concentration of 10 μm.
T1 construct: partially purified telomerase from a nuclear extract of HEK293 cells; endogenous in cells; host or cells: HEK293 cells, nuclear extract, partially purified
T1 sequence (O14746 whole entry): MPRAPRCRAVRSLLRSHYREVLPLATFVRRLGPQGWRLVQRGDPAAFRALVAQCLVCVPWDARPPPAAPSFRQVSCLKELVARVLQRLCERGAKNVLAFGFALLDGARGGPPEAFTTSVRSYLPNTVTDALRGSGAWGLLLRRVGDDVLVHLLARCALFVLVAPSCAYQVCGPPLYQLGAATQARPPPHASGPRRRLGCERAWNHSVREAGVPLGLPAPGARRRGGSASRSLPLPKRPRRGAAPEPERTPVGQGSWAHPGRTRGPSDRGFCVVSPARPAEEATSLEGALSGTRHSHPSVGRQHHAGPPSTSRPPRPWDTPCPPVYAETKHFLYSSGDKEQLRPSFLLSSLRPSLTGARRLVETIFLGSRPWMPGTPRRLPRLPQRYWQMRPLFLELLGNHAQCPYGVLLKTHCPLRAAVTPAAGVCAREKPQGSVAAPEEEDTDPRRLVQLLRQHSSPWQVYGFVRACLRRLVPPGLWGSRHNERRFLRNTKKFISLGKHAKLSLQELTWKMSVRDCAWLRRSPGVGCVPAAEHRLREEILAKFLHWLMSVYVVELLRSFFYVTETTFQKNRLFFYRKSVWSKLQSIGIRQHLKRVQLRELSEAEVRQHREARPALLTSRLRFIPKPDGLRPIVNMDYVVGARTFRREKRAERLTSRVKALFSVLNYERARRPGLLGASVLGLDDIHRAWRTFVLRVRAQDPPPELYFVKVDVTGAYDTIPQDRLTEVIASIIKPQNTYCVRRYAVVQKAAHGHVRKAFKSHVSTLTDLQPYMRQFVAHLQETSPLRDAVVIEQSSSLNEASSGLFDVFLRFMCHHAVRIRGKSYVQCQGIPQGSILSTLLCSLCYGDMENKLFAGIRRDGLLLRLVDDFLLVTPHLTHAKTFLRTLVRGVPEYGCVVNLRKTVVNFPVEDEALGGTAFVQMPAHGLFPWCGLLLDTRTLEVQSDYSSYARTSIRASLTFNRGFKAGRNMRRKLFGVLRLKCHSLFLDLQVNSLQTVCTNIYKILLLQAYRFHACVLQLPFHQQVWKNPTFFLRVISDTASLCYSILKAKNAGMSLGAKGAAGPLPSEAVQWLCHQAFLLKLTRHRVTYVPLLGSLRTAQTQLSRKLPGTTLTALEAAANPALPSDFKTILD
T1 sequence (O60832 whole entry partner): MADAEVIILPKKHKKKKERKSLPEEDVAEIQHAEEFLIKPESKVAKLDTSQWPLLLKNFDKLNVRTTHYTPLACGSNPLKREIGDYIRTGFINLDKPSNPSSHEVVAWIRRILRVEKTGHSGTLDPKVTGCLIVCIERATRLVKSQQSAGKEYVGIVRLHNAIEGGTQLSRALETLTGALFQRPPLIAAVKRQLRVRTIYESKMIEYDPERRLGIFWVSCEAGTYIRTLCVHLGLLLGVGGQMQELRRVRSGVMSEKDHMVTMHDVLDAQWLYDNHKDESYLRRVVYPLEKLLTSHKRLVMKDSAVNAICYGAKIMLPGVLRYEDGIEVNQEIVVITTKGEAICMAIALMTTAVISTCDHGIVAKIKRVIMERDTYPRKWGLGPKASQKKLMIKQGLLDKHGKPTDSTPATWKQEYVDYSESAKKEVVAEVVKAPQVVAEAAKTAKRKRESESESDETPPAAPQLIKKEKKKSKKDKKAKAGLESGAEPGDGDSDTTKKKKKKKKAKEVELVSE
T1 sequence (Q9NPE3 whole entry partner): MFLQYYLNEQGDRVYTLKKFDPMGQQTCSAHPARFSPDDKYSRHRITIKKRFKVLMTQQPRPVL
T1 sequence (Q9NX24 whole entry partner): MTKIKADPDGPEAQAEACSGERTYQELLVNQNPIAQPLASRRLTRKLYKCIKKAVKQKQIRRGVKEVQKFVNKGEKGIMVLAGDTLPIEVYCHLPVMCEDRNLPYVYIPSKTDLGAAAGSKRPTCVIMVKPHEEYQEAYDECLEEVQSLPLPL
T1 sequence (Q9NY12 whole entry partner): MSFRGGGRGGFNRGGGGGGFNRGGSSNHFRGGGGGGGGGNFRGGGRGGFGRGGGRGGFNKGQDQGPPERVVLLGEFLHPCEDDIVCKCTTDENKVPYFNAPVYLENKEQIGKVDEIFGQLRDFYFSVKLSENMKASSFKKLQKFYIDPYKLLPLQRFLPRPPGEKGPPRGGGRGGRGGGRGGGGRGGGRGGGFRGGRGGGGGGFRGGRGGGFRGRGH
Format: biochemical
Protocol: Alternatively, telomerase inhibitory activity of the compounds was measured in accordance with a known method (U.S. Pat. No. 5,760,062). That is, a dimethyl sulfoxide (DMSO) solution of each agent was mixed with partially purified telomerase from a nuclear extract of HEK293 cells and incubated in the presence of an oligodeoxynucleotide to be used as the substrate and deoxynucleotide triphosphate. The obtained reacted product (DNA having a telomere sequence) was adsorbed on a membrane, and hybridization was carried out using a labeled oligonucleotide probe having a sequence complementary to the telomere sequence. The inhibition ratio was calculated based on the ratio of the signal of label on the membrane in the presence of the agent to the signal of label in the absence of the agent (control). Also, concentration of each agent which inhibits 50% of the enzyme activity based on the control was used as IC50.
For `COC(=O)c1cc(C=C2SC(=O)NC2=O)c(Sc2ccc(Cl)cc2)s1` [Compound 58], the “residual activity of in vitro telomerase activity (in parenthesis)” value (from here on “residual activity”) was “(56%)”.
`Cc1ccc([S+]([O-])c2ccc(-c3ccco3)cc2C=C2SC(=O)NC2=O)cc1` (stereo not drawn) [Compound 91] was tested, and the “residual activity” value was “(61%)”.
`Cc1ccc([S+]([O-])c2ccc(-c3cccs3)cc2C=C2SC(=O)NC2=O)cc1` (stereo not drawn) [Compound 93] was tested, and the “residual activity” value was “(55%)”.
With `Cc1ccc(Sc2ccc(CO)cc2C=C2SC(=O)NC2=O)cc1` [Compound 96] the “residual activity” value was “(62%)”.
For `Cc1ccc(Sc2cc(C(F)(F)F)ccc2C=C2SC(=O)NC2=O)cc1` [Compound 101], the “residual activity” value was “(62%)”.
In the case of `COc1ccc(Sc2ccc(C)cc2)c(C=C2SC(=O)NC2=O)c1` [Compound 104], the “residual activity” value is reported as “(61%)”.
With `O=C1NC(=O)C(=Cc2cc([N+](=O)[O-])ccc2Oc2ccccc2)S1` [Compound 110] the “residual activity” value was “(53%)”.
`O=C1NC(=O)C(=Cc2cc([N+](=O)[O-])ccc2N2CCCCC2)S1` [Compound 124] was tested, and the “residual activity” value was “(54%)”.

Same assay, conditions: partially purified telomerase from nuclear extract of HEK293 cells
Compound `Cc1ccc(Sc2ccc([N+](=O)[O-])cc2C=C2SC(=O)NC2=O)cc1` [Compound 1] has an IC50 of 21 µM.
With `Cc1ccc(Sc2ccc(C=C3SC(=O)NC3=O)cc2[N+](=O)[O-])cc1` [Compound 9] the IC50 was 8.3 µM.
With `O=C1NC(=O)C(=Cc2cccc(Oc3ccc(Cl)c(Cl)c3)c2)S1` [Compound 13] the IC50 was 5.9 µM.
Work on `O=C1NC(=O)C(=Cc2cc([N+](=O)[O-])ccc2OCc2ccc(Cl)c(Cl)c2)S1` [Compound 17] yielded an IC50 of 10 µM.
Compound `Cc1ccc(COc2ccc([N+](=O)[O-])cc2C=C2SC(=O)NC2=O)cc1` [Compound 18] has an IC50 of 11 µM.
`Cc1ccc(COc2cc(C=C3SC(=O)NC3=O)ccc2[N+](=O)[O-])cc1` [Compound 19] was tested, and the IC50 was 70 µM.
In the case of `Cc1ccc(COc2ccc(C=C3SC(=O)NC3=O)cc2[N+](=O)[O-])cc1` [Compound 20], the IC50 is reported as 9 µM.
For `COc1ccc(OCc2ccc(C)cc2)c(C=C2SC(=O)NC2=O)c1` [Compound 23], the IC50 was 14 µM.
Work on `Cc1ccc(COc2ccc(Cl)cc2C=C2SC(=O)NC2=O)cc1` [Compound 24] yielded an IC50 of 5.3 µM.
`Cc1ccc(COc2ccc(Br)cc2C=C2SC(=O)NC2=O)cc1` [Compound 25] showed an IC50 of 4.2 µM.
In the case of `O=C1NC(=O)C(=Cc2ccc(N(c3ccccc3)c3ccccc3)cc2)S1` [Compound 26], the IC50 is reported as 4.2 µM.
In the case of `O=C1NC(=O)C(=Cc2ccc(C(=O)c3ccccc3)cc2)S1` [Compound 31], the IC50 is reported as 15 µM.
`O=C1NC(=O)C(=Cc2ccc(Cc3ccccc3)cc2)S1` [Compound 32] gave an IC50 of 21 µM.
With `O=C1NC(=O)C(=Cc2ccc(C(O)(c3ccccc3)c3ccccc3)cc2)S1` [Compound 33] the IC50 was 5.5 µM.
Work on `O=C1NC(=O)C(=Cc2ccc(CN(c3ccccc3)c3ccccc3)cc2)S1` [Compound 35] yielded an IC50 of 3.9 µM.
`O=C1NC(=O)C(=Cc2ccc(N(Cc3ccccc3)Cc3ccccc3)cc2)S1` [Compound 36] showed an IC50 of 5.1 µM.
`O=C1NC(=O)C(=Cc2cc(Br)sc2Sc2ccc(Cl)cc2)S1` [Compound 43] showed an IC50 of 2.6 µM.
Work on `O=C1NC(=O)C(=Cc2cc(-c3ccccc3)sc2Sc2ccc(Cl)cc2)S1` [Compound 44] yielded an IC50 of 1.9 µM.
In the case of `Cc1ccc(COc2ccc(-c3ccccc3)cc2C=C2SC(=O)NC2=O)cc1` [Compound 47], the IC50 is reported as 4.1 µM.
For `Cc1ccc(COc2ccc(-c3cccs3)cc2C=C2SC(=O)NC2=O)cc1` [Compound 48], the IC50 was 1.6 µM.
`O=C1NC(=O)C(=Cc2ccc(N(c3ccc(CO)cc3)c3ccc(CO)cc3)cc2)S1` [Compound 49] was tested, and the IC50 was 4.4 µM.
In the case of `O=C1NC(=O)C(=Cc2cc(C(=O)O)sc2Sc2ccc(Cl)cc2)S1` [Compound 53], the IC50 is reported as 0.77 µM.
Compound `O=C1NC(=O)C(=Cc2cc(C(=O)Nc3ccccc3)sc2Sc2ccc(Cl)cc2)S1` [Compound 55] has an IC50 of 5.3 µM.
`O=C1NC(=O)C(=Cc2sccc2Oc2ccccc2)S1` [Compound 59] gave an IC50 of 2.1 µM.
For `O=C1NC(=O)C(=Cc2cc(Sc3ccc(Cl)cc3)cs2)S1` [Compound 60], the IC50 was 4.5 µM.
For `O=C1NC(=O)C(=Cc2cc(Sc3ccc(Cl)cc3)c(Sc3ccc(Cl)cc3)s2)S1` [Compound 61], the IC50 was 0.33 µM.
In the case of `O=C1NC(=O)C(=Cc2ccc(Sc3ccc(Cl)cc3)s2)S1` [Compound 62], the IC50 is reported as 7.8 µM.
`O=C1NC(=O)C(=Cc2cc(Br)c(Sc3ccc(Cl)cc3)s2)S1` [Compound 63] was tested, and the IC50 was 6.5 µM.
With `O=C1NC(=O)/C(=C/c2cc(Br)c([S+]([O-])c3ccc(Cl)cc3)s2)S1` (stereo not drawn) [Compound 64] the IC50 was 9.7 µM.
Work on `O=C1NC(=O)C(=Cc2cc(C(=O)c3ccc(Cl)cc3)c(Sc3ccc(Cl)cc3)s2)S1` [Compound 65] yielded an IC50 of 6.2 µM.
In the case of `O=C1NC(=O)C(=Cc2cc([N+](=O)[O-])ccc2Sc2ccc(Cl)cc2)S1` [Compound 67], the IC50 is reported as 1 µM.
Compound `O=C1NC(=O)C(=Cc2cc([N+](=O)[O-])ccc2Sc2cccc(Cl)c2)S1` [Compound 70] has an IC50 of 4.8 µM.
Work on `O=C1NC(=O)C(=Cc2cc([N+](=O)[O-])ccc2Sc2ccccc2Cl)S1` [Compound 71] yielded an IC50 of 2.7 µM.
`O=C1NC(=O)C(=Cc2cc([N+](=O)[O-])ccc2Sc2ccc(Cl)c(Cl)c2)S1` [Compound 72] gave an IC50 of 4.3 µM.
`O=C1NC(=O)C(=Cc2cc([N+](=O)[O-])ccc2Sc2ccc(Br)cc2)S1` [Compound 73] was tested, and the IC50 was 7 µM.
`COc1ccc(Sc2ccc([N+](=O)[O-])cc2C=C2SC(=O)NC2=O)cc1` [Compound 74] gave an IC50 of 3.7 µM.
Work on `O=C1NC(=O)C(=Cc2cc([N+](=O)[O-])ccc2SCc2ccccc2)S1` [Compound 76] yielded an IC50 of 3.9 µM.
For `O=C1NC(=O)C(=Cc2cc([N+](=O)[O-])ccc2SCc2ccc(Cl)cc2)S1` [Compound 79], the IC50 was 3.5 µM.
Work on `O=C1NC(=O)C(=Cc2ccc(Sc3ccc(Br)cc3)c([N+](=O)[O-])c2)S1` [Compound 80] yielded an IC50 of 5.5 µM.
`O=C1NC(=O)C(=Cc2cc([N+](=O)[O-])ccc2SC2CCCCC2)S1` [Compound 84] was tested, and the IC50 was 3.9 µM.
With `Cc1ccc(Sc2ccc(Br)cc2C=C2SC(=O)NC2=O)cc1` [Compound 87] the IC50 was 6.9 µM.
Compound `Cc1ccc(Sc2ccc(-c3ccco3)cc2C=C2SC(=O)NC2=O)cc1` [Compound 90] has an IC50 of 3.7 µM.
For `Cc1ccc(Sc2ccc(C#N)cc2C=C2SC(=O)NC2=O)cc1` [Compound 94], the IC50 was 7.8 µM.
`Cc1ccc(Sc2cccc(C(F)(F)F)c2C=C2SC(=O)NC2=O)cc1` [Compound 99] gave an IC50 of 6.9 µM.
Compound `Cc1ccc(Sc2ccc(C(F)(F)F)cc2C=C2SC(=O)NC2=O)cc1` [Compound 100] has an IC50 of 4.4 µM.
Work on `Cc1ccc(Sc2ccc(Cl)cc2C=C2SC(=O)NC2=O)cc1` [Compound 106] yielded an IC50 of 4.5 µM.
For `O=C1NC(=O)C(=Cc2cc([N+](=O)[O-])ccc2Sc2ccc(C(F)(F)F)cc2)S1` [Compound 115], the IC50 was 2.7 µM.
With `O=C1NC(=O)C(=Cc2ccc(N(Cc3ccccc3)c3ccccc3)cc2)S1` [Compound 121] the IC50 was 4 µM.
Compound `O=C1NC(=O)C(=Cc2cc([N+](=O)[O-])ccc2SCCO)S1` [Compound 122] has an IC50 of 7.7 µM.
In the case of `CCCN(CCC)c1ccc([N+](=O)[O-])cc1C=C1SC(=O)NC1=O` [Compound 123], the IC50 is reported as 6.9 µM.
`O=C1NC(=O)C(=Cc2cc([N+](=O)[O-])ccc2N2CCOCC2)S1` [Compound 125] was tested, and the IC50 was 1.6 µM.
For `COc1cc(O)ccc1C=C1SC(=O)NC1=O` [Compound 126], the IC50 was 1.3 µM.
For `O=C1NC(=O)C(=Cc2ccccc2OC(F)(F)F)S1` [Compound 127], the IC50 was 5.7 µM.
In the case of `O=C1NC(=O)/C(=C/c2c3ccccc3c(Sc3ccc(Cl)cc3)c3ccccc23)S1` [Compound 128], the IC50 is reported as 2.6 µM.
For `O=C1NC(=O)C(=Cc2cc([N+](=O)[O-])ccc2Sc2ccc(C(=O)O)cc2)S1` [Compound 129], the IC50 was 8.1 µM.
In the case of `CSc1ccc(Sc2ccc([N+](=O)[O-])cc2C=C2SC(=O)NC2=O)cc1` [Compound 132], the IC50 is reported as 2.6 µM.
In the case of `Cc1ccc(Sc2ccc(C=C3SC(=O)NC3=O)cc2Oc2ccccc2)cc1` [Compound 137], the IC50 is reported as 5.5 µM.
`COc1cc(C=C2SC(=O)NC2=O)ccc1Sc1ccc(C)cc1` [Compound 138] showed an IC50 of 4.3 µM.
`Cc1ccc(Sc2ccc(C(=O)OCc3ccccc3)cc2C=C2SC(=O)NC2=O)cc1` [Compound 139] showed an IC50 of 4.4 µM.
`O=C1NC(=O)C(=Cc2cc([N+](=O)[O-])ccc2Sc2ccc3ccccc3c2)S1` [Compound 171] showed an IC50 of 7.2 µM.
`CCc1ccc(CCOc2ccc(CC3SC(=O)NC3=O)cc2)nc1` (stereo not drawn) [Pioglitazone, pioglitazone, reference compound] showed an IC50 of 83 µM.
`Cc1c(C)c2c(c(C)c1O)CCC(C)(COc1ccc(CC3SC(=O)NC3=O)cc1)O2` (stereo not drawn) [Troglitazone, troglitazone, reference compound] gave an IC50 of 16 µM.

The compounds below were run against T2, telomerase in human renal carcinoma cell line ACHN (Homo sapiens, UniProt O14746) (assay: Telomerase activity in extract of agent-treated ACHN cells (TRAP assay)). Settings: contact 3 days, concentration 30 μM.
T2 construct: human renal carcinoma cell line ACHN for 3 days, and then a cell extract was prepared; endogenous in cells; host or cells: ACHN human renal carcinoma cells; CHAPS extract after 3 days of treatment
T2 sequence (O14746 whole entry): as the sequence (O14746 whole entry) above
T2 sequence (O60832 whole entry partner): as the sequence (O60832 whole entry partner) above
T2 sequence (Q9NPE3 whole entry partner): as the sequence (Q9NPE3 whole entry partner) above
T2 sequence (Q9NX24 whole entry partner): as the sequence (Q9NX24 whole entry partner) above
T2 sequence (Q9NY12 whole entry partner): as the sequence (Q9NY12 whole entry partner) above
Format: cell-based
Protocol: That is, a cell extract was prepared using a buffer solution containing 0.5% CHAPS. Using the extract, TRAP (Telomeric Repeat Amplification Protocol) assay was carried out in vitro (TRAPEZE™ ELISA Telomerase Detection Kit, manufactured by Intergen). The ratio (%) of the enzyme activity in the extract from agent-treated cells to the enzyme activity in the extract from agent-untreated cells was calculated.
For `Cc1ccc(Sc2ccc([N+](=O)[O-])cc2C=C2SC(=O)NC2=O)cc1` [Compound 1], the “Residual Enzyme Activity (%)” value was 11%.
`Cc1ccc(Sc2ccc([N+](=O)[O-])cc2C=C2SC(=S)NC2=O)cc1` [Compound 38] was tested, and the “Residual Enzyme Activity (%)” value was 36%.

Same assay, conditions: contact 3 days, concentration 100 μM
For `CC(=O)Nc1ccc(Sc2ccc(C)cc2)c(C=C2SC(=O)NC2=O)c1` [Compound 3], the “Residual Enzyme Activity (%)” value was 0%.
`O=C1NC(=O)C(=Cc2cccc(Oc3ccccc3)c2)S1` [Compound 11] was tested, and the “Residual Enzyme Activity (%)” value was 50%.
`Cc1ccc(COc2ccccc2C=C2SC(=O)NC2=O)cc1` [Compound 22] was tested, and the “Residual Enzyme Activity (%)” value was 33%.
